This passage reports Ki results from ChEMBL document CHEMBL1139433 (J Med Chem, 2004).

Square brackets hold non-standard residues; d marks the D form. Peptide text beside a SMILES is read from it. Phe(4-NH2) = Nc1ccc(C[C@H](N)C(=O)O)cc1 A value given as a limit tells only on which side of the number the result lay.

The assay concerns the target T1, Angiotensin II receptor (AT-1) type-1 (Rattus norvegicus, UniProt P29089+P25095).
T1 sequence (P29089 whole entry): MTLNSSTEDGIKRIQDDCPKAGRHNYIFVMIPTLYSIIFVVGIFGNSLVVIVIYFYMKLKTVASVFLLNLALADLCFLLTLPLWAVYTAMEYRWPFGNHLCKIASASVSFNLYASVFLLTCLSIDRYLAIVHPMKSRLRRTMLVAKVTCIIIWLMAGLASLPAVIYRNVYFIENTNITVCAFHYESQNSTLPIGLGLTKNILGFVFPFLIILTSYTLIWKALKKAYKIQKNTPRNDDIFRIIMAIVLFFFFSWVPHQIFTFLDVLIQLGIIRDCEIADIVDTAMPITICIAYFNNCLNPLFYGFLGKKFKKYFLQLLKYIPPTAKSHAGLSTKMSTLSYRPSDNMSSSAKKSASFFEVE
T1 sequence (P25095 whole entry): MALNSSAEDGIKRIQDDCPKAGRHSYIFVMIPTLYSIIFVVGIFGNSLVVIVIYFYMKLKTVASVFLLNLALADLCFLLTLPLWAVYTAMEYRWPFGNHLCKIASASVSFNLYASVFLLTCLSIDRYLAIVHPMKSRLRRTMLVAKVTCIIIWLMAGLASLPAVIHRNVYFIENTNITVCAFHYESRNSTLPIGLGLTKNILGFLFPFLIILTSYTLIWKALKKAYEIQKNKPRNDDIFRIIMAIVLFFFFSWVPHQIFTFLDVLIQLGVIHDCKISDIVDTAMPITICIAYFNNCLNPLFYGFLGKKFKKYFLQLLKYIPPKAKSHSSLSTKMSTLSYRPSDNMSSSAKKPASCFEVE
As to the kind of experiment: Displacement of [125I]-Ang II from rat liver membrane angiotensin II type 1 (AT1) receptor.

The compound `CC[C@H](C)[C@H](NC(=O)[C@H](Cc1ccc(O)cc1)NC(=O)[C@@H](NC(=O)[C@H](CCCN=C(N)N)NC(=O)[C@@H](N)CC(=O)O)C(C)C)C(=O)N[C@@H](Cc1ccc(N)cc1)C(=O)N1CCC[C@H]1C(=O)N[C@@H](Cc1ccccc1)C(=O)O` (H-DRVYI[Phe(4-NH2)]PF-OH) came in with a Ki above 10 µM.
